Test [1] concerns JNK pathway activation. Description: Western blotting of phospho-JNK in mock-transfected HEK-293T cells. It is filed as cell-based, human. The following applies: 50 or 100 μM, 60 min. On the procedure:
We next set out to assess the functional effects of HNE modification of ZAK in human cells. HEK-293T cells were stably transfected with cDNAs for WT-ZAK, C22A-ZAK, or K45M-ZAK and the activation state of their MAPK signaling pathways was monitored by western blotting with anti-phosphoprotein antibodies. […] We next treated cells with H2O2 (1 mM, 30 min) to induce oxidative stress, a process that is known to activate the JNK pathway^41,42. H2O2 treatment stimulated JNK activity in both WT- and C22A-ZAK-transfected cells (but not K45M-ZAK-transfected cells), with WT-ZAK cells showing the greater level of activation (FIG. 5b,c). […] We interpret these findings to indicate the existence of both ZAK-dependent and ZAK-independent pathways for HNE modulation of JNK activation (FIG. 5d). By modifying C22 on ZAK, HNE blocks the contribution that this kinase makes to the activation of the JNK pathway. […]
Mouse and rabbit monoclonal antibodies against phospho-ERK 1/2 (Thr202/Tyr204), phosphor-SAPK/JNK (Thr183/[…]), phosphor-p38 MAPK (Thr180/[…]) and total ERK 1/2, SAPK/JNK and p38 MAPK were purchased from Cell Signaling Technology. […] Protein band intensities were quantified by ImageJ8 and ratios of phosphor-MAPK over total MAPK were computed. […]

In test [2] the test system is cysteines in ZAK, EEF2, RTN4 and FN3KRP. Description: in situ competitive isoTOP-ABPP in MDA-MB-231 cells. The test is classed as cell-based, human. The following applies: MDA-MB-231 cells treated with 50 or 100 μM HNE. Here is the method: By combining the R values at all 5 HNE concentrations, we could extrapolate IC50 values for […] of IA probe-labeling for ˜700 of the 1100 cysteines (FIG. 3a).
After MDA-MB-231 cells were grown to 100% confluency, the media was removed and replaced with fresh serum-free media containing 100 μM HNE (20 μL of […] stock in 10 mL media). A control flask of cells was treated with 10 mL of serum-free media containing 20 uL of ethanol in parallel. The cells were incubated at 37° C. for 1 hour and harvested as detailed above to prepare HNE-treated and control proteomes, respectively. […]
IA-probe labeled peptides were identified by SEQUEST2 and DTASelect3, and the quantification of heavy/light ratios (isoTOP-ABPP ratios, R) was performed by an in-house software (CIMAGE) as previously described. The software was advanced to be able to detect and quantify cases where near complete […] blockade of IA-probe labeling was achieved (e.g., very small or no light peak) and assign an empirical ratio cut-off of 15 to each of such cases. […] In the case of probe-modified peptides that were sequenced in one, but not the other runs, a featured algorithm of CIMAGE was utilized to identify the corresponding peak pairs in the runs without the SEQUEST identification and obtain quantification as previously described. […]

As to `CCCCCC(O)/C=C/C=O` (centres unmarked) [4-HNE, 4-Hydroxynonenal], the “JNK activation by HNE alone, mock-transfected cells” value in test [1] was “activated JNK”. Besides, the “inhibition of the most HNE-sensitive cysteines in situ” value in test [2] was “strongly inhibited”.

The values above are taken from patent publication US10782295B2, “Cysteine-reactive ligand discovery in proteomes” (THE SCRIPPS RESEARCH INSTITUTE, priority 2013, dated 2020).
